# Tests used:
# [1] = biological target: T1, Serine/threonine-protein kinase PLK4 (Homo sapiens, UniProt O00444); experiment: Inhibition of N-terminal GST-tagged human PLK4 (1 to 391 amino acids) expressed in Escherichia coli using TMB as substrate after 30 mins by indirect ELISA assay
# T1 sequence (O00444 whole entry): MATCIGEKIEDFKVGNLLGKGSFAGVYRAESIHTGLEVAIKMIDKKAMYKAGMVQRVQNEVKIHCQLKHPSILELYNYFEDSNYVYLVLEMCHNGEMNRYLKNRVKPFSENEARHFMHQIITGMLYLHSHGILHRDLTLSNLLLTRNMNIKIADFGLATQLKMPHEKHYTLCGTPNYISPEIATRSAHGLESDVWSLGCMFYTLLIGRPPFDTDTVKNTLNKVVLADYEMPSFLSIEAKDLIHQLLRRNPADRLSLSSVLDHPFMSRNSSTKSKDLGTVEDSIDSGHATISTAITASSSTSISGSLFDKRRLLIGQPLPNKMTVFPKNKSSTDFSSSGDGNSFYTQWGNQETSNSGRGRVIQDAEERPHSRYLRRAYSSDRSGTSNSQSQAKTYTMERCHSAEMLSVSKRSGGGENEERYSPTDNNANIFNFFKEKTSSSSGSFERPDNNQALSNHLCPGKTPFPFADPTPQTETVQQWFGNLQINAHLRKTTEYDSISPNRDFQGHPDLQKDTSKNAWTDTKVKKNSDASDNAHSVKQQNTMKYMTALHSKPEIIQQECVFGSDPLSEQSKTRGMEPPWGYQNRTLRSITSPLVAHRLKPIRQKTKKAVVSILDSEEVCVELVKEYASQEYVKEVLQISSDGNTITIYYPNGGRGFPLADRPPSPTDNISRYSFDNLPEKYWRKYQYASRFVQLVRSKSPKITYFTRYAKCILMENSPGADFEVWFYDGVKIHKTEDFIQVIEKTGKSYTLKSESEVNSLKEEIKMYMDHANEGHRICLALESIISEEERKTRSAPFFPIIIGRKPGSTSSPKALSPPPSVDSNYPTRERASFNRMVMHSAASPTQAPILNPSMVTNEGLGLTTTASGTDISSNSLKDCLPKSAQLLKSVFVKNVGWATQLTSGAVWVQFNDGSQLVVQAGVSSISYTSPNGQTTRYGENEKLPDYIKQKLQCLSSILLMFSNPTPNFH
# MCF7 = experiment: Antiproliferative activity against human MCF7 cells assessed as growth inhibition after 5 days by SRB assay; format: functional; conditions: MCF7, 120 h
# [2] = biological target: Vascular endothelial growth factor receptor 2 (Homo sapiens, UniProt P35968); experiment: Inhibition of KDR (unknown origin) by FRET-based homogeneous assay
# [3] = Cmax in SCID mouse at 50 mg/kg, ip; format: ADME, organism-based; set-up: dose 50 mg/kg, route intraperitoneal; conditions: in vivo
# [4] = biological target: Serine/threonine-protein kinase PLK1 (Homo sapiens, UniProt P53350); experiment: Inhibition of PLK1 (unknown origin) by FRET-based homogeneous assay
# MDA-MB-231 = experiment: Antiproliferative activity against human MDA-MB-231 cells assessed as growth inhibition after 5 days by SRB assay; format: functional; conditions: MDA-MB-231, 120 h
# Cytochrome P450 3A4 = Cytochrome P450 3A4 (Homo sapiens, UniProt P08684); experiment: Inhibition of CYP3A4 (unknown origin) after 10 mins by fluorescence assay; format: ADME
# Cytochrome P450 2C9 = Cytochrome P450 2C9 (Homo sapiens, UniProt P11712); experiment: Inhibition of CYP2C9 (unknown origin) using MFC as substrate after 45 mins by fluorescence assay; format: ADME
# [5] = biological target: Serine/threonine-protein kinase PLK3 (Homo sapiens, UniProt Q9H4B4); experiment: Inhibition of PLK3 (unknown origin) by FRET-based homogeneous assay
# MDA-MB-468 [6] = experiment: Antitumor activity against human MDA-MB-468 cells xenografted in CB-17 SCID mouse assessed as reduction in tumor size at 50 mg/kg, ip qd for 21 days; format: functional; conditions: MDA-MB-468, ip, 504 h, route intraperitoneal, read-out: TGI
# [7] = AUC in SCID mouse at 50 mg/kg, ip; format: ADME, organism-based; set-up: dose 50 mg/kg, route intraperitoneal; conditions: plasma
# [8] = Plasma protein binding in mouse at […] after 4 hrs by equilibrium dialysis method; format: ADME, cell-free; conditions: read-out: PPB
# Mus musculus = experiment: Toxicity in human MDA-MB-468 cells xenografted CB-17 SCID mouse assessed as reduction in body weight at 25 mg/kg, ip qd for 21 days; format: organism-based; set-up: dose 25 mg/kg, route intraperitoneal; conditions: in vivo, 504 h
# MDA-MB-468 [9] = experiment: Antitumor activity against human MDA-MB-468 cells xenografted in CB-17 SCID mouse assessed as reduction in tumor size at 25 mg/kg, ip qd for 21 days relative to control; format: functional; conditions: MDA-MB-468, ip, 504 h, route intraperitoneal, read-out: TGI
# Cytochrome P450 2D6 = Cytochrome P450 2D6 (Homo sapiens, UniProt P10635); experiment: Inhibition of CYP2D6 (unknown origin) using AMMC as substrate after 30 mins by fluorescence assay; format: ADME
# [10] = biological target: T2, Receptor-type tyrosine-protein kinase FLT3 (Homo sapiens, UniProt P36888); experiment: Inhibition of FLT3 (unknown origin) by FRET-based homogeneous assay
# T2 sequence (P36888 whole entry): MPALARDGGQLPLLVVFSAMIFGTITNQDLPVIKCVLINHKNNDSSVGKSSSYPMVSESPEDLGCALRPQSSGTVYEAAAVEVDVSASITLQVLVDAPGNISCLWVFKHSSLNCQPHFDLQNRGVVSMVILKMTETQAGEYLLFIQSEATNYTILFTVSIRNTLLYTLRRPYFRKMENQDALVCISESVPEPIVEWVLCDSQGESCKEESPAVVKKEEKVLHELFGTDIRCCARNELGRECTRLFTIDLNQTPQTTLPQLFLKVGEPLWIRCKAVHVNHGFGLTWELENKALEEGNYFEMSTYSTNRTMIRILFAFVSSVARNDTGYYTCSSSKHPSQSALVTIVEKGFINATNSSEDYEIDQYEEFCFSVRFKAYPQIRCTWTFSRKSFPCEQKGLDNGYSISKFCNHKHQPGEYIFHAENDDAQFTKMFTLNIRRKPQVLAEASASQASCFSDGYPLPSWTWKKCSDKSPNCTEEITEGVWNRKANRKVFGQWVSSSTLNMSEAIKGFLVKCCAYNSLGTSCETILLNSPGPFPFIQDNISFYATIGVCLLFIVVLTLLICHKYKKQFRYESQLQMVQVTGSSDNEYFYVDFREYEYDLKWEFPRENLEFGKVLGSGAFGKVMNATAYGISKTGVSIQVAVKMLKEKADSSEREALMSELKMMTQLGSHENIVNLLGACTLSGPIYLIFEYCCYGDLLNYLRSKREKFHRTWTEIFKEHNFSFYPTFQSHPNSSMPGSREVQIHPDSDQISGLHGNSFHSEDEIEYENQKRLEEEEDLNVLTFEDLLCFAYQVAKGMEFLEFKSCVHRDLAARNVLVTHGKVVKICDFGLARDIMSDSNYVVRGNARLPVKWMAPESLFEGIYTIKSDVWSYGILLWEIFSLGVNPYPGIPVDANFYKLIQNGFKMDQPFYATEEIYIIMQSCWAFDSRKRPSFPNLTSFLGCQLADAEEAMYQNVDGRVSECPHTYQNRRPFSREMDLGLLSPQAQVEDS
# Sequence of Vascular endothelial growth factor receptor 2 (P35968 whole entry): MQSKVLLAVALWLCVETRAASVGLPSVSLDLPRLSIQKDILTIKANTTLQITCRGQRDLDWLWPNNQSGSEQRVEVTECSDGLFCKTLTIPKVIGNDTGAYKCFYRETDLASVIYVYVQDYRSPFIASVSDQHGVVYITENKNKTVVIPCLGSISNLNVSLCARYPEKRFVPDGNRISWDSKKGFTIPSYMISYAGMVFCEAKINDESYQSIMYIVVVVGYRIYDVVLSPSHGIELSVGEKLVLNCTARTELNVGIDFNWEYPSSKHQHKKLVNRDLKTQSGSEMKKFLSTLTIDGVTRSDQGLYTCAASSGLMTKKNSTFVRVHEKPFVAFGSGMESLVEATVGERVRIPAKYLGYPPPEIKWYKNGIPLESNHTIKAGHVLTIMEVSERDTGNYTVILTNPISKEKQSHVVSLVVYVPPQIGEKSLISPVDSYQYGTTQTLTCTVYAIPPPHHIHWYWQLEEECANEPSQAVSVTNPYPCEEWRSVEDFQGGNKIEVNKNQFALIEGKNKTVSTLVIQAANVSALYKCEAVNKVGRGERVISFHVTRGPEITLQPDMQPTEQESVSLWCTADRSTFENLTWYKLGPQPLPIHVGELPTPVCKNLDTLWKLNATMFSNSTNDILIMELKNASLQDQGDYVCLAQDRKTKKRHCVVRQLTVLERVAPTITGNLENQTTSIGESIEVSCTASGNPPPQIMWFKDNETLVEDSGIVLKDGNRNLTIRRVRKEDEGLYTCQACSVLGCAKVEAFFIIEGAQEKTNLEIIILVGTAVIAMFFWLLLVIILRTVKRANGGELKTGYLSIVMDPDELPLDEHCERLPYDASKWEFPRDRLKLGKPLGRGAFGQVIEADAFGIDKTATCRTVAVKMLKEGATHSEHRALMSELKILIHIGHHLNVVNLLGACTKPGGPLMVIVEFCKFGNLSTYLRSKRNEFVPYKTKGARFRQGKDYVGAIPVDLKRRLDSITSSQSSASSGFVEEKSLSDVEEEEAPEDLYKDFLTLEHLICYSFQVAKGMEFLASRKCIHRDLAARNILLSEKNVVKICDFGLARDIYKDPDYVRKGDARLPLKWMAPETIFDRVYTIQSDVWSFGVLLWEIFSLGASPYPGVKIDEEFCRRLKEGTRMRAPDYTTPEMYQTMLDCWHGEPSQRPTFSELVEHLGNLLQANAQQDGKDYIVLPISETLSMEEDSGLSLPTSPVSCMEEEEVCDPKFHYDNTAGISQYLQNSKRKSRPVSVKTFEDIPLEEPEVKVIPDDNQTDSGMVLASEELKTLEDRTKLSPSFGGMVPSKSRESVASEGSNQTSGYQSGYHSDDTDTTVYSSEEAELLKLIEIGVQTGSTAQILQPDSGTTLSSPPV
# Sequence of Serine/threonine-protein kinase PLK3 (Q9H4B4 whole entry): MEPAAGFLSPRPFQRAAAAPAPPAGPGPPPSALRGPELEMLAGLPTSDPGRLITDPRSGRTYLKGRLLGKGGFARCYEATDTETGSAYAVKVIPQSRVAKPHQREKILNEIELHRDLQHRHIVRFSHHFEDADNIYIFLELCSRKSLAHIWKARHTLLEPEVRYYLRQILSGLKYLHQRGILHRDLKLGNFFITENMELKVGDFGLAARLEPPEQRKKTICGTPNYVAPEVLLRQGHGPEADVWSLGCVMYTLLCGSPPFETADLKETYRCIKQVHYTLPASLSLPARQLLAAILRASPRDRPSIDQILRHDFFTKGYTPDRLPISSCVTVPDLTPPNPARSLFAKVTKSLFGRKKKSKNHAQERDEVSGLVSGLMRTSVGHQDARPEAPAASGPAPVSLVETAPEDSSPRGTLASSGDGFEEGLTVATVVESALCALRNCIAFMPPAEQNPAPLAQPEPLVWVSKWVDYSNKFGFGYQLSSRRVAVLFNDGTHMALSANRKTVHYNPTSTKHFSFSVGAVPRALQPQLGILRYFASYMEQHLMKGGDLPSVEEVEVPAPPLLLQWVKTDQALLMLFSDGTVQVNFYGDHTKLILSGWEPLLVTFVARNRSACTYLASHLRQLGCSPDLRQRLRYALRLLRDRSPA
# Sequence of Cytochrome P450 2C9 (P11712 whole entry): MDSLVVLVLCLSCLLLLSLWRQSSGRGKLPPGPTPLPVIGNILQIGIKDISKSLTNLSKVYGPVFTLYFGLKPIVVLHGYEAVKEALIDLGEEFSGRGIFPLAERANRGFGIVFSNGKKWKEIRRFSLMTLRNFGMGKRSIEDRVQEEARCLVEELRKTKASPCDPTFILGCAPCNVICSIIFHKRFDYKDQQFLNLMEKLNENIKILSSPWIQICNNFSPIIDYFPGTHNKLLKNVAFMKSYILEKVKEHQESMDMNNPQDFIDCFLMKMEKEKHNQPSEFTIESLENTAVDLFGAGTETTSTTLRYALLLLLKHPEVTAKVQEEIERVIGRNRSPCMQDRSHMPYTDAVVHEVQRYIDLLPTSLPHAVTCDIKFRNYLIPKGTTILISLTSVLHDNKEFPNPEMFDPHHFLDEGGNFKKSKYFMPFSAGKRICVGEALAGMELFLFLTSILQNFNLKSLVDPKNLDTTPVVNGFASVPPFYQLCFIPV
# Sequence of Cytochrome P450 3A4 (P08684 whole entry): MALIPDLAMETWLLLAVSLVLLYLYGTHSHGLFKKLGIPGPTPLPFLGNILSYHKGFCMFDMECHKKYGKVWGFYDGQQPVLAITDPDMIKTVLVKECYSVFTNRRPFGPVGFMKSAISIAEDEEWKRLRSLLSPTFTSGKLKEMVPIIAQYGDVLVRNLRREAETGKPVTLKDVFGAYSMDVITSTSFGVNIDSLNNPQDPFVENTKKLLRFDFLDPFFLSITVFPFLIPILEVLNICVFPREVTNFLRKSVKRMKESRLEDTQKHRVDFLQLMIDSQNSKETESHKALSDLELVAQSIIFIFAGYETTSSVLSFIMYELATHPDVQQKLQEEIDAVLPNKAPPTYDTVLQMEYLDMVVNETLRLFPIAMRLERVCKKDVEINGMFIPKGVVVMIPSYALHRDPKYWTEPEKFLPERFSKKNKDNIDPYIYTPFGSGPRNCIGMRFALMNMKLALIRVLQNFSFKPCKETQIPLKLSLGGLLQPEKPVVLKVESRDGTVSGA
# Sequence of Cytochrome P450 2D6 (P10635 whole entry): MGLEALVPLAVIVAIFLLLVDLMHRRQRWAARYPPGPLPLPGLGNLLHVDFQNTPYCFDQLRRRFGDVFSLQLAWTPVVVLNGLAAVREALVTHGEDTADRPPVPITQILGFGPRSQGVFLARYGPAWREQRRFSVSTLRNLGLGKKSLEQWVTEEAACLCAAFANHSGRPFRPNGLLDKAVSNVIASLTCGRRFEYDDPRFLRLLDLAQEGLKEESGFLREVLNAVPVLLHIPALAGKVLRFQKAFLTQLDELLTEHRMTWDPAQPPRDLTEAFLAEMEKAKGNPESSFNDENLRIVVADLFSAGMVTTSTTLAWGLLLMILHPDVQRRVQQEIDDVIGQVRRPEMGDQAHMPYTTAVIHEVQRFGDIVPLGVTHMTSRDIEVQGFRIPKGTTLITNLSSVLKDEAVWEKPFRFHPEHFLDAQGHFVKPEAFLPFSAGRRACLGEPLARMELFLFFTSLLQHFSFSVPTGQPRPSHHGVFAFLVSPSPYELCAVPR
# Sequence of Serine/threonine-protein kinase PLK1 (P53350 whole entry): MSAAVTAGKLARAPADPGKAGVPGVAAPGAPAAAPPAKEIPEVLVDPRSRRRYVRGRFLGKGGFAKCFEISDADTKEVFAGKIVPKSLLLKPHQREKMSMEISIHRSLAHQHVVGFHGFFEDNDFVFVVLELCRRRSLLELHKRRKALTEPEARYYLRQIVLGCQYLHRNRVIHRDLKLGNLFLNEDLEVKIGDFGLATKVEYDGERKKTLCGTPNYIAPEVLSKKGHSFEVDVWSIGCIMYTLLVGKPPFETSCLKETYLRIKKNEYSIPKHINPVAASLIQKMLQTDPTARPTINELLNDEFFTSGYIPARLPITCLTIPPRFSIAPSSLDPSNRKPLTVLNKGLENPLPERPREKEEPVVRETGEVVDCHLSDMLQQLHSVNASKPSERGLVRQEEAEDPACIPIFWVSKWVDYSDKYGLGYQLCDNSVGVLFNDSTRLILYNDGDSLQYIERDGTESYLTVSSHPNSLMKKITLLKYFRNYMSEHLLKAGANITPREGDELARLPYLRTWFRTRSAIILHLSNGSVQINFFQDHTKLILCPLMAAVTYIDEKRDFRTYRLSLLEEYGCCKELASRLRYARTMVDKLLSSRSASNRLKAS
compound,measurement,setting,value
COc1ccc2c(c1)/C(=C\c1ccc3c(/C=C/c4ccc(N5CCN(C)CC5)nc4)n[nH]c3c1)C(=O)N2,IC50,[1],0.00061 µM
same,GI50,MCF7,0.01 µM
same,IC50,[2],0.48 µM
same,Cmax,[3],92 ng/mL
same,IC50,[4],> 10 µM
same,GI50,MDA-MB-231,< 0.01 µM
same,IC50,Cytochrome P450 3A4,10 µM
same,IC50,Cytochrome P450 2C9,0.8 µM
same,IC50,[5],> 10 µM
same,inhibition in vivo at 50 mg/kg,MDA-MB-468 [6],120%
same,AUC,[7],190 ng·h/mL
same,fraction unbound at 4 h,[8],0.01
same,Activity,Mus musculus,Non-toxic
same,inhibition in vivo at 25 mg/kg,MDA-MB-468 [9],70%
same,IC50,Cytochrome P450 2D6,> 10 µM
same,IC50,[10],0.18 µM

# Source: ChEMBL document CHEMBL2406977, “The discovery of PLK4 inhibitors: (E)-3-((1H-Indazol-6-yl)methylene)indolin-2-ones as novel antiproliferative agents” (J Med Chem, 2013)
